In US6355799B1, “Substituted benzene compounds, process for their preparation, and herbicidal and defoliant compositions containing them” (ISK Americas Incorporated, priority 1997, dated 2002):

Tests used:
Assay type in all cases: in vivo
[1] = tested on: barnyardgrass (Echinochloa crus-galli, ECHCG); test: Post-emerge test, greenhouse herbicide activity screening; conditions: phytotoxicity rating 0-100 (0 no damage, 100 complete death), 14 days after application
Procedure, shortened: (§1)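 Compounds in acetone were track-sprayed at 15-1000 g ai/ha (187 l/ha) on sandy loam pots: pre-emerge one day after seeding, post-emerge at 2-3 leaf stage with 0.25% v/v non-ionic surfactant. Phytotoxicity was rated 14 days later on a 0 (no damage) to 100 (complete death) scale.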

[2] = tested on: sicklepod (Cassia obtusifolia, CASOB); test: as above; conditions: phytotoxicity rating 0-100 (0 no damage, 100 complete death), 14 days after application
Procedure, shortened: as §1

[3] = tested on: common ragweed (Ambrosia artemisizfolia L., AMBEL); test: as above; conditions: phytotoxicity rating 0-100 (0 no damage, 100 complete death), 14 days after application
Procedure, shortened: as §1

[4] = tested on: ivyleaf morningglory (Ipomoea hederacea, IPOHE); test: as above; conditions: phytotoxicity rating 0-100 (0 no damage, 100 complete death), 14 days after application
Procedure, shortened: as §1

[5] = tested on: lambsquarters (Chenopodium album, CHEAL); test: as above; conditions: phytotoxicity rating 0-100 (0 no damage, 100 complete death), 14 days after application
Procedure, shortened: as §1

[6] = tested on: large crabgrass (Digitaria sanguinalis, DIGSA); test: as above; conditions: phytotoxicity rating 0-100 (0 no damage, 100 complete death), 14 days after application
Procedure, shortened: as §1

[7] = tested on: johnsongrass (Sorghum halepense, SORHA); test: as above; conditions: phytotoxicity rating 0-100 (0 no damage, 100 complete death), 14 days after application
Procedure, shortened: as §1

[8] = tested on: redroot pigweed (Amaranthus retroflexus, AMARE); test: as above; conditions: phytotoxicity rating 0-100 (0 no damage, 100 complete death), 14 days after application
Procedure, shortened: as §1

[9] = tested on: velvetleaf (Abutilon theophrasti, ABUTH); test: as above; conditions: phytotoxicity rating 0-100 (0 no damage, 100 complete death), 14 days after application
Procedure, shortened: as §1

[10] = tested on: barnyardgrass (Echinochloa crus-galli, ECHCG); test: Pre-emerge test, greenhouse herbicide activity screening; conditions: pre-emerge, rated 14 days after application, 0 = no damage, 100 = complete death
Procedure, shortened: (§2)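 Sandy loam pots; pre-emerge: sown 1 d pre-spray, surface-watered after, then bottom-watered. Post-emerge: sown 8–21 d before, 2–3 leaf stage, + 0.25% v/v NIS, bottom-watered. Acetone, 187 l/ha track spray, 15–1000 g ai/ha. 0–100 injury score, day 14.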

[11] = tested on: sicklepod (Cassia obtusifolia, CASOB); test: as above; conditions: pre-emerge, rated 14 days after application, 0 = no damage, 100 = complete death
Procedure, shortened: as §2

[12] = tested on: common ragweed (Ambrosia artemisizfolia L., AMBEL); test: as above; conditions: pre-emerge, rated 14 days after application, 0 = no damage, 100 = complete death
Procedure, shortened: as §2

[13] = tested on: green foxtail (Setaria viridis, SETVI); test: as above; conditions: pre-emerge, rated 14 days after application, 0 = no damage, 100 = complete death
Procedure, shortened: as §2

[14] = tested on: ivyleaf morningglory (Ipomoea hederacea, IPOHE); test: as above; conditions: pre-emerge, rated 14 days after application, 0 = no damage, 100 = complete death
Procedure, shortened: as §2

[15] = tested on: lambsquarters (Chenopodium album, CHEAL); test: as above; conditions: pre-emerge, rated 14 days after application, 0 = no damage, 100 = complete death
Procedure, shortened: as §2

[16] = tested on: large crabgrass (Digitaria sanguinalis, DIGSA); test: as above; conditions: pre-emerge, rated 14 days after application, 0 = no damage, 100 = complete death
Procedure, shortened: as §2

[17] = tested on: johnsongrass (Sorghum halepense, SORHA); test: as above; conditions: pre-emerge, rated 14 days after application, 0 = no damage, 100 = complete death
Procedure, shortened: as §2

[18] = tested on: velvetleaf (Abutilon theophrasti, ABUTH); test: as above; conditions: pre-emerge, rated 14 days after application, 0 = no damage, 100 = complete death
Procedure, shortened: as §2

[19] = tested on: upland rice (Oryza sp., var. Tebonnet, RICE); test: Post-emerge test, crop safety; conditions: phytotoxicity rating 0-100 (0 no damage, 100 complete death), 14 days after application
Procedure, shortened: as §2

[20] = tested on: field corn (Zea mays L., var. Dekalb 535, CORN); test: Post-emerge test, crop safety; conditions: phytotoxicity rating 0-100 (0 no damage, 100 complete death), 14 days after application
Procedure, shortened: as §2

[21] = tested on: redroot pigweed (Amaranthus retroflexus, AMARE); test: Pre-emerge test, greenhouse herbicide activity screening; conditions: pre-emerge, rated 14 days after application, 0 = no damage, 100 = complete death
Procedure, shortened: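 Visual ratings on a 0-100 scale (0 no damage, 100 all plants dead) were taken at 14 days after treatment. Rates of 15-1000 g ai/ha in acetone, 187 l/ha, were sprayed onto soil one day after planting (pre-emerge) or onto 2-3 leaf plants with 0.25% v/v surfactant (post-emerge).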

[22] = tested on: upland rice (Oryza sp., var. Tebonnet, RICE); test: Pre-emerge test, crop safety; conditions: pre-emerge, rated 14 days after application, 0 = no damage, 100 = complete death
Procedure, shortened: (§3)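 Applied at 15–1000 g ai/ha from acetone in 187 l/ha spray volume. Post-emergence applications included 0.25% v/v non-ionic surfactant and reached plants sown 8–21 days before. Pre-emergence applications were incorporated by surface watering. Efficacy or crop damage was rated on a 0–100 scale after 14 days.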

[23] = tested on: field corn (Zea mays L., var. Dekalb 535, CORN); test: Pre-emerge test, crop safety; conditions: pre-emerge, rated 14 days after application, 0 = no damage, 100 = complete death
Procedure, shortened: as §3

COc1c(Cl)cc(F)c(-n2c(=O)cc(C(F)(F)F)n(C)c2=O)c1NC(=O)c1cccc(C)c1 [2-23]
Post-emerge Herbicidal Activity ECHCG ([1]; 63 g ai/ha): 0
Post-emerge Herbicidal Activity ECHCG ([1]; 250 g ai/ha): 30
Post-emerge Herbicidal Activity CASOB ([2]; 63 g ai/ha): 95
Post-emerge Herbicidal Activity CASOB ([2]; 250 g ai/ha): 100
Post-emerge Herbicidal Activity AMBEL ([3]; 63 g ai/ha): 90
Post-emerge Herbicidal Activity AMBEL ([3]; 250 g ai/ha): 100
Post-emerge Herbicidal Activity IPOHE ([4]; 63 g ai/ha): 100
Post-emerge Herbicidal Activity IPOHE ([4]; 250 g ai/ha): 100
Post-emerge Herbicidal Activity CHEAL ([5]; 63 g ai/ha): 70
Post-emerge Herbicidal Activity CHEAL ([5]; 250 g ai/ha): 90
Post-emerge Herbicidal Activity DIGSA ([6]; 63 g ai/ha): 0
Post-emerge Herbicidal Activity DIGSA ([6]; 250 g ai/ha): 70
Post-emerge Herbicidal Activity SORHA ([7]; 63 g ai/ha): 50
Post-emerge Herbicidal Activity SORHA ([7]; 250 g ai/ha): 90
Post-emerge Herbicidal Activity AMARE ([8]; 63 g ai/ha): 70
Post-emerge Herbicidal Activity AMARE ([8]; 250 g ai/ha): 100
Post-emerge Herbicidal Activity ABUTH ([9]; 63 g ai/ha): 100
Post-emerge Herbicidal Activity ABUTH ([9]; 250 g ai/ha): 100
Pre-emerge Herbicidal Activity ECHCG (phytotoxicity rating, scale 0-100) ([10]; 63 g ai/ha): 80
Pre-emerge Herbicidal Activity ECHCG (phytotoxicity rating, scale 0-100) ([10]; 250 g ai/ha): 100
Pre-emerge Herbicidal Activity CASOB (phytotoxicity rating, scale 0-100) ([11]; 63 g ai/ha): 70
Pre-emerge Herbicidal Activity CASOB (phytotoxicity rating, scale 0-100) ([11]; 250 g ai/ha): 100
Pre-emerge Herbicidal Activity AMBEL (phytotoxicity rating, scale 0-100) ([12]; 63 g ai/ha): 100
Pre-emerge Herbicidal Activity AMBEL (phytotoxicity rating, scale 0-100) ([12]; 250 g ai/ha): 100
Pre-emerge Herbicidal Activity SETVI (phytotoxicity rating, scale 0-100) ([13]; 63 g ai/ha): 100
Pre-emerge Herbicidal Activity SETVI (phytotoxicity rating, scale 0-100) ([13]; 250 g ai/ha): 100
Pre-emerge Herbicidal Activity IPOHE (phytotoxicity rating, scale 0-100) ([14]; 63 g ai/ha): 100
Pre-emerge Herbicidal Activity IPOHE (phytotoxicity rating, scale 0-100) ([14]; 250 g ai/ha): 100
Pre-emerge Herbicidal Activity CHEAL (phytotoxicity rating, scale 0-100) ([15]; 63 g ai/ha): 100
Pre-emerge Herbicidal Activity CHEAL (phytotoxicity rating, scale 0-100) ([15]; 250 g ai/ha): 100
Pre-emerge Herbicidal Activity DIGSA (phytotoxicity rating, scale 0-100) ([16]; 63 g ai/ha): 70
Pre-emerge Herbicidal Activity DIGSA (phytotoxicity rating, scale 0-100) ([16]; 250 g ai/ha): 100
Pre-emerge Herbicidal Activity SORHA (phytotoxicity rating, scale 0-100) ([17]; 63 g ai/ha): 60
Pre-emerge Herbicidal Activity SORHA (phytotoxicity rating, scale 0-100) ([17]; 250 g ai/ha): 90
Pre-emerge Herbicidal Activity ABUTH (phytotoxicity rating, scale 0-100) ([18]; 63 g ai/ha): 100
Pre-emerge Herbicidal Activity ABUTH (phytotoxicity rating, scale 0-100) ([18]; 250 g ai/ha): 100
Post-emerge Herbicidal Activity RICE (crop damage) ([19]; 63 g ai/ha): 50
Post-emerge Herbicidal Activity RICE (crop damage) ([19]; 250 g ai/ha): 95
Post-emerge Herbicidal Activity CORN (crop damage) ([20]; 63 g ai/ha): 40
Post-emerge Herbicidal Activity CORN (crop damage) ([20]; 250 g ai/ha): 90
Pre-emerge Herbicidal Activity AMARE (phytotoxicity rating, scale 0-100) ([21]; 63 g ai/ha): 100
Pre-emerge Herbicidal Activity AMARE (phytotoxicity rating, scale 0-100) ([21]; 250 g ai/ha): 100
Pre-emerge crop damage RICE (phytotoxicity rating, scale 0-100) ([22]; 63 g ai/ha): 80
Pre-emerge crop damage RICE (phytotoxicity rating, scale 0-100) ([22]; 250 g ai/ha): 95
Pre-emerge crop damage CORN (phytotoxicity rating, scale 0-100) ([23]; 63 g ai/ha): 60
Pre-emerge crop damage CORN (phytotoxicity rating, scale 0-100) ([23]; 250 g ai/ha): 100
